Laboratory results taken from patent publication US11667602B2, “Compounds and their use” (AstraZeneca AB, priority 2020, dated 2023).
Converted amounts (≈) assume the structure as drawn. Read-outs that look alike come from different tables or passages of the source.

Legend:
[1] = Solubility (Test F); assay type: physicochemical; conditions: arithmetic mean if run multiple times
Procedure: The assay was conducted according to the Solubility Assay described in pages 164-167 of Wernevik, J. et al., “A Fully Integrated Assay Panel for Early Drug Metabolism and Pharmacokinetics Profiling”, Assay and Drug Development Technologies, 2020, 18(4), 157-179. Data are reported in Table 36 as solubility ([…]. Where the assay was run multiple times for the same compound, the arithmetic mean is reported.

[2] = Human Liver Microsomal Stability (Test C); assay type: in vitro ADME
In short: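 CLint (μl/min/mg protein) derived from compound depletion in human liver microsomes following a published standardized early-DMPK protocol; replicate determinations given as arithmetic mean.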

[3] = Rat Hepatocyte Stability (Test E); assay type: in vitro ADME; conditions: geometric mean if run multiple times
In short: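 Intrinsic clearance in rat hepatocytes, expressed as μl/min/10^6 cells, following the literature integrated DMPK panel method. Repeat determinations combined as geometric mean.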

[4] = Human Plasma Protein Binding (Test B); assay type: in vitro ADME; conditions: fraction unbound (fu)
In short: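 Values given as % free (fu) in human plasma, using the method of Wernevik et al. (2020). For compounds tested more than once, the arithmetic mean is given.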

[5] = Human Hepatocyte Stability (Test D); assay type: in vitro ADME; conditions: geometric mean if run multiple times; for hepatocyte CLint at 1 µM: cryopreserved pooled human hepatocytes (LiverPool 10-Donor)
In short: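 Intrinsic clearance (μL/min/10^6 cells), derived as kV/N from the log-linear loss of parent compound. Compound incubated at 37 °C with cryopreserved pooled human hepatocytes, 0.25×10^6 cells in 0.25 mL L-15; dosing solution 100 μM in acetonitrile. Singlicate incubations, cassette LC-MS; repeats reported as geometric mean.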

[6] = target: T1, human RXFP1 (Homo sapiens, UniProt Q9HBX9); experiment: RXFP1 Hu cAMP (Test A); assay type: cell-based; set-up: expressed in transfected cells; host or cells: Jump-In T-REx CHO-K1 cells (ThermoFisher), induced with 10 ng/ml doxycycline for 24 h
T1 sequence (Q9HBX9 1-757): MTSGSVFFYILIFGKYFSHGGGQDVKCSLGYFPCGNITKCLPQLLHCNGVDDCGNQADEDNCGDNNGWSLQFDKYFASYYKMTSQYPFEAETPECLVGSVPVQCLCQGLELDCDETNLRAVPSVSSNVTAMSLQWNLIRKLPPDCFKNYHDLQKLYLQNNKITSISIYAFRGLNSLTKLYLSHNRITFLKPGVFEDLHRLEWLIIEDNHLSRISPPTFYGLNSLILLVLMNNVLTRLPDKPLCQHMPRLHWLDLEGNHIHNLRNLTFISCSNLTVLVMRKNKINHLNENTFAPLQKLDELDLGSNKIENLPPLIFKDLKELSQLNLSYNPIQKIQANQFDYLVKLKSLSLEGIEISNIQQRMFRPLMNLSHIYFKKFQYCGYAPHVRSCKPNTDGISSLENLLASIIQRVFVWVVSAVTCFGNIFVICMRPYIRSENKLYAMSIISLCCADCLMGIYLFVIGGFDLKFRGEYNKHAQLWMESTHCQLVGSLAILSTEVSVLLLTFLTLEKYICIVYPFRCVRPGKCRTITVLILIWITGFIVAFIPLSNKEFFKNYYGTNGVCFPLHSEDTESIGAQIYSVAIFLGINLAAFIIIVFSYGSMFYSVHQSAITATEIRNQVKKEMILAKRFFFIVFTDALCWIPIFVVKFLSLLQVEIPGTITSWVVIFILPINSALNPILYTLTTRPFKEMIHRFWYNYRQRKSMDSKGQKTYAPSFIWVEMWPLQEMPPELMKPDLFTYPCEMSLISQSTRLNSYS
In short: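 Competitive HTRF cAMP readout (2 h, room temperature) in CHO-K1 cells stably expressing human RXFP1, induced with 10 ng/ml doxycycline for 24 h; IBMX 0.5 mM final.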

[7] = RXFP1 Hu cAMP, read-out: Test A EC50

SMILES: COc1c(F)cc(O[C@H]2CC[C@@](C)(C(=O)O)CC2)cc1C(=O)N[C@@H]1[C@H]2CC[C@H](C2)[C@@H]1C(=O)NCC1(C)CCC1 [Example 374]
- solubility [1]: 680 µM (≈ 370 µg/mL)
- microsomal CLint ([2]; human, liver microsomes): 44 µL/min/mg
- hepatocyte CLint ([3]; rat, hepatocytes): 21 µL/min/1e6 cells
- Test B Human Plasma Protein Binding (% free) [4]: 2.9 % free
- hepatocyte CLint at 1 µM ([5]; human): 5.3 µL/min/1e6 cells
- EC50 ([6]; Test A EC50, RXFP1 Hu cAMP): 44 nM

SMILES: COc1cc(F)c(-c2cccc(CC(=O)O)c2)cc1C(=O)N[C@H]1[C@@H](C(=O)Nc2cccc(S(=O)(=O)C(F)(F)F)c2)[C@@H]2C=C[C@H]1C2 (racemic) [Example 281]
- solubility [1]: 11 µM (≈ 7.11 µg/mL)
- microsomal CLint ([2]; human, liver microsomes): 5.5 µL/min/mg
- hepatocyte CLint ([3]; rat, hepatocytes): 9.1 µL/min/1e6 cells
- Test B Human Plasma Protein Binding (% free) [4]: 0.31 % free
- hepatocyte CLint at 1 µM ([5]; human): 5 µL/min/1e6 cells
- Test A Sinf ([6]; RXFP1 Hu cAMP): 170%
- EC50 [6, 7]: 870 nM

SMILES: COc1cc(F)c(-c2ccc(CCS(N)(=O)=O)cc2)cc1C(=O)N[C@H]1[C@H]2CC[C@H](C2)[C@H]1C(=O)Nc1cccc(S(=O)(=O)C(F)(F)F)c1 (single isomer, unassigned) [Example 326]
- solubility [1]: 8 µM (≈ 5.58 µg/mL)
- microsomal CLint ([2]; human, liver microsomes): 65 µL/min/mg
- hepatocyte CLint ([3]; rat, hepatocytes): 4.6 µL/min/1e6 cells
- Test B Human Plasma Protein Binding (% free) [4]: <0.35 % free
- hepatocyte CLint at 1 µM ([5]; human): 8 µL/min/1e6 cells
- Test A Sinf ([6]; RXFP1 Hu cAMP): 114%
- EC50 [6, 7]: 110 nM

SMILES: CCC(CC)[C@H](C)NC(=O)[C@H]1[C@@H]2CC[C@@H](C2)[C@H]1NC(=O)c1cc(O[C@H]2CC[C@@](C)(C(=O)O)CC2)c(F)cc1OC (single isomer, unassigned) [Example 144, (1S,4s)-4-(5-(((1S,2R,3S,4R)-3-(((R*)-3-Ethylpentan-2-yl)carbamoyl)bicyclo-[2.2.1]heptan-2-yl)carbamoyl)-2-fluoro-4-methoxyphenoxy)-1-methylcyclohexane-1-carboxylic acid]
- solubility [1]: 29 µM (≈ 16.3 µg/mL)
- microsomal CLint ([2]; human, liver microsomes): 240 µL/min/mg
- hepatocyte CLint ([3]; rat, hepatocytes): 29 µL/min/1e6 cells
- Test B Human Plasma Protein Binding (% free) [4]: 3 % free
- hepatocyte CLint at 1 µM ([5]; human): 17 µL/min/1e6 cells
- Test A Sinf ([6]; RXFP1 Hu cAMP): 106%
- EC50 [6, 7]: 93 nM

SMILES: COc1cc(C#N)c(OC2CCC(C)(C(=O)O)CC2)cc1C(=O)NC1C(C(=O)NCC2(C)CCC2)C2CCC1N2CCC(F)(F)F (single isomer, unassigned) [Example 536, (1R,4s)-4-(2-Cyano-4-methoxy-5-(((1S*,2S*,3R*,4R*)-3-(((1-methylcyclobutyl)methyl)carbamoyl)-7-(3,3,3-trifluoropropyl)-7-azabicyclo[2.2.1]heptan-2-yl)carbamoyl)phenoxy)-1-methylcyclohexane-1-carboxylic acid]
- solubility [1]: 420 µM (≈ 272 µg/mL)
- microsomal CLint ([2]; human liver microsomes): 250 µL/min/mg
- hepatocyte CLint ([3]; rat hepatocytes): 43 µL/min/1e6 cells
- Test B Human Plasma Protein Binding (% free) [4]: 3.3 % free
- hepatocyte CLint at 1 µM [5]: 130 µL/min/1e6 cells
- Test A Sinf ([6]; RXFP1 Hu cAMP): 97%
- EC50 ([6]; Test A EC50, RXFP1 Hu cAMP): 5.1 nM

SMILES: COc1cc(F)c(-c2ccc(C(=O)O)cc2)cc1C(=O)N[C@@H]1[C@H]2CC[C@H](C2)[C@@H]1C(=O)Nc1cccc(S(=O)(=O)C(F)(F)F)c1 [Example 250]
- solubility [1]: 900 µM (≈ 571 µg/mL)
- microsomal CLint ([2]; human, liver microsomes): 16 µL/min/mg
- hepatocyte CLint ([3]; rat, hepatocytes): 18 µL/min/1e6 cells
- Test B Human Plasma Protein Binding (% free) [4]: <0.32 % free
- hepatocyte CLint at 1 µM ([5]; human): 32 µL/min/1e6 cells
- Test A Sinf ([6]; RXFP1 Hu cAMP): 101%
- EC50 [6, 7]: 190 nM

SMILES: COc1cc(F)c(O[C@H]2CC[C@@](C)(C(=O)O)CC2)cc1C(=O)N[C@@H]1COC[C@@H]1C(=O)Nc1cccc(S(=O)(=O)C(F)(F)F)c1 (relative stereo) [Example 561, (1R,4s)-4-(2-Fluoro-4-methoxy-5-(((3S*,4R*)-4-((3-((trifluoromethyl)sulfonyl)phenyl)carbamoyl)tetrahydrofuran-3-yl)carbamoyl)phenoxy)-1-methylcyclohexane-1-carboxylic acid]
- solubility [1]: 930 µM (≈ 601 µg/mL)
- Test C Human Liver Microsomal Stability Clint ([2]; human liver microsomes): 17 µL/min/mg
- Test E Rat Hepatocyte Stability Clint ([3]; rat hepatocytes): 55 μL/min/10^6 cells
- Test B Human Plasma Protein Binding (% free) [4]: 3.7 % free
- Test D Human Hepatocyte Stability Clint ([5]; human hepatocytes): 6.3 μL/min/10^6 cells
- Test A Sinf ([6]; RXFP1 Hu cAMP): 104%
- EC50 [6, 7]: 130 nM

SMILES: COc1cc(F)c(-c2ccc(C[C@H](C(=O)O)N(C)C)cc2)cc1C(=O)N[C@@H]1[C@H]2CC[C@H](C2)[C@@H]1C(=O)Nc1cccc(S(=O)(=O)C(F)(F)F)c1 [Example 292, (R)-2-(Dimethylamino)-3-(2′-fluoro-4′-methoxy-5′-(((1S,2R,3S,4R)-3-((3-((trifluoromethyl)sulfonyl)phenyl)carbamoyl)bicyclo[2.2.1]heptan-2-yl)carbamoyl)-[1,1′-biphenyl]-4-yl)propanoic acid]
- solubility [1]: 18 µM (≈ 12.7 µg/mL)
- microsomal CLint ([2]; human, liver microsomes): 24 µL/min/mg
- hepatocyte CLint ([3]; rat, hepatocytes): 14 µL/min/1e6 cells
- Test B Human Plasma Protein Binding (% free) [4]: 1.2 % free
- hepatocyte CLint at 1 µM ([5]; human): 4.6 µL/min/1e6 cells
- Test A Sinf ([6]; RXFP1 Hu cAMP): 110%
- EC50 [6, 7]: 77 nM

SMILES: COc1cc(F)c(O[C@H]2CC[C@@H](C(=O)O)CC2)cc1C(=O)N[C@@H]1[C@H]2CC[C@H](C2)[C@@H]1C(=O)Nc1ccccc1 [Example 201, (1S,4s)-4-(2-Fluoro-4-methoxy-5-(((1S,2R,3S,4R)-3-(phenylcarbamoyl)bicyclo[2.2.1]heptan-2-yl)carbamoyl)phenoxy)cyclohexane-1-carboxylic acid]
- solubility [1]: 940 µM (≈ 493 µg/mL)
- microsomal CLint ([2]; human, liver microsomes): 23 µL/min/mg
- hepatocyte CLint ([3]; rat, hepatocytes): 190 µL/min/1e6 cells
- Test B Human Plasma Protein Binding (% free) [4]: 1.6 % free
- hepatocyte CLint at 1 µM ([5]; human): 7.6 µL/min/1e6 cells
- Test A Sinf ([6]; RXFP1 Hu cAMP): 98%
- EC50 [6, 7]: 7200 nM

SMILES: COc1cc(F)c(Cc2cnn(CC(=O)O)c2)cc1C(=O)N[C@@H]1[C@H]2CC[C@H](C2)[C@@H]1C(=O)Nc1cccc(S(=O)(=O)C(F)(F)F)c1 [Example 220, 2-(4-(2-Fluoro-4-methoxy-5-(((1S,2R,3S,4R)-3-((3-((trifluoromethyl)sulfonyl)phenyl)carbamoyl)bicyclo[2.2.1]heptan-2-yl)carbamoyl)benzyl)-1H-pyrazol-1-yl)acetic acid]
- solubility [1]: 940 µM (≈ 613 µg/mL)
- microsomal CLint ([2]; human, liver microsomes): 10 µL/min/mg
- hepatocyte CLint ([3]; rat, hepatocytes): 14 µL/min/1e6 cells
- Test B Human Plasma Protein Binding (% free) [4]: 0.95 % free
- hepatocyte CLint at 1 µM ([5]; human): 7.2 µL/min/1e6 cells
- Test A Sinf ([6]; RXFP1 Hu cAMP): 109%
- EC50 [6, 7]: 1500 nM

SMILES: COC[C@]1(C(=O)O)CC[C@@H](Oc2cc(C(=O)N[C@@H]3[C@H]4CC[C@H](C4)[C@@H]3C(=O)Nc3cccc(S(=O)(=O)C(F)(F)F)c3)c(OC)cc2F)CC1 [Example 482]
- solubility [1]: > 1000 µM
- microsomal CLint ([2]; human, liver microsomes): 56 µL/min/mg
- hepatocyte CLint ([3]; rat, hepatocytes): 78 µL/min/1e6 cells
- Test B Human Plasma Protein Binding (% free) [4]: 1.5 % free
- hepatocyte CLint at 1 µM ([5]; human): 18 µL/min/1e6 cells
- Test A Sinf ([6]; RXFP1 Hu cAMP): 112%
- EC50 [6, 7]: 11 nM
